In patent US20110091570A1, “Compositions and Devices for Antisepsis and Anticoagulation” (priority 2008, published 2011):
Values joined by “and” are separate entries in the source; they are usually repeats but may differ in a detail not shown here. Equal values may be shown once.

Experiments:
[1] = tested on: infected injuries; conditions: applied intravenously [Ref. 1]; cited from earlier work
[2] = target: T1, Fibrinogen (Homo sapiens, UniProt P02671+P02675+P02679); test: Fibrinogen, Multifibren U test; type: biochemical; conditions: Example 7, 0.25 IE heparin
T1 construct: from tissue; host or cells: citrated whole blood of volunteers
T1 sequence (P02671 20-629 limits assumed): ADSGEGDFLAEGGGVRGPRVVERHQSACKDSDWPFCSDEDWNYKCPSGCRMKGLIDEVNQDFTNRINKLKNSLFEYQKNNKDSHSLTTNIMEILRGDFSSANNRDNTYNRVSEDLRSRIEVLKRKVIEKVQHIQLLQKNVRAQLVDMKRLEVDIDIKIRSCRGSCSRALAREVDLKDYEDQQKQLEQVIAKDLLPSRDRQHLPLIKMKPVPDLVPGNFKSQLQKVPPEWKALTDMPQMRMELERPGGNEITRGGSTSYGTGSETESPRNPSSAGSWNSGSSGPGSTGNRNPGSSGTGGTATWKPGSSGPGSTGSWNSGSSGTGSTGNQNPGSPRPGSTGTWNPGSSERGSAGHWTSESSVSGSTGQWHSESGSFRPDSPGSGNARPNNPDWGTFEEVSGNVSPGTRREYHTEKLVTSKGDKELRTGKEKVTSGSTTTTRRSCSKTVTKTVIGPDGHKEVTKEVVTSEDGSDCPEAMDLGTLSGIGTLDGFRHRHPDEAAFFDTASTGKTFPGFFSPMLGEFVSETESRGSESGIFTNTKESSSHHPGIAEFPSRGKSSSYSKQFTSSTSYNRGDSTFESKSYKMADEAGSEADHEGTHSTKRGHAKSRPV
T1 sequence (P02675 31-491): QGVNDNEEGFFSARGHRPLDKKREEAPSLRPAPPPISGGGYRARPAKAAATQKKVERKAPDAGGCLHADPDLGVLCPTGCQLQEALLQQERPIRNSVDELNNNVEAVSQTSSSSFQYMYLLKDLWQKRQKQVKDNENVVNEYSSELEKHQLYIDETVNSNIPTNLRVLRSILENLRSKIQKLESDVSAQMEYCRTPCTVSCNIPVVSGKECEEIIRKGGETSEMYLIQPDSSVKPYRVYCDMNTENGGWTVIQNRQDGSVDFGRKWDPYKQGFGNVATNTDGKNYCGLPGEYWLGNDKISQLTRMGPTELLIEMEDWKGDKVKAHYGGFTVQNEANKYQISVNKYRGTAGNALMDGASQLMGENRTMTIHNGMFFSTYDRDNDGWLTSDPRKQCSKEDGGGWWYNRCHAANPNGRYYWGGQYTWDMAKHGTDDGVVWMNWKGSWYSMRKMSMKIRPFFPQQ
T1 sequence (P02679 27-453): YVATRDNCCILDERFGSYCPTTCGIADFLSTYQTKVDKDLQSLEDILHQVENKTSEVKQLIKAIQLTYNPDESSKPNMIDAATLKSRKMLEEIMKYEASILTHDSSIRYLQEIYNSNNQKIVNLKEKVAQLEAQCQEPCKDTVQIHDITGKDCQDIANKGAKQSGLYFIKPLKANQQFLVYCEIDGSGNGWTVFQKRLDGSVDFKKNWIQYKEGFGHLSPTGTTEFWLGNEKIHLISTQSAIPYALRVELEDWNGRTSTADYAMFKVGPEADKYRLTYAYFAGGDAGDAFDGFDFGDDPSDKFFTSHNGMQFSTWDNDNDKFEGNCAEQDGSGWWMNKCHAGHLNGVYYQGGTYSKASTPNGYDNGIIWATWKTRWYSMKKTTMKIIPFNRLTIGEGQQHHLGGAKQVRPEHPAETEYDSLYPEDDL
Experimental: (§1) Whole blood was taken from a single volunteer and enriched with trisodium citrate (0.3 mL of a 0.106 molar solution per 3 mL whole blood) (S-Monovette®, Sarstedt, Nümbrecht, Germany). Portions of 1.8 mL citrate blood were mixed with 0.2 mL NCT in 0.9% saline. The following final (after dilution in blood) NCT concentrations were tested separately: 1% (55 mM); 0.5% (27.5 mM); 0.25% (13.75 mM); 0.1% (5.5 mM); 0.05% (2.75 mM); 0.025% (1.375 mM); and 0.01% (0.55 mM). A control without NCT was performed in parallel. The following commercial coagulation tests were performed according to the prescription of the manufacturer: prothrombin time (PT) was determined using Thromborel® S test (Dade Behring GmbH, Marburg, Germany), activated partial thromboplastin time (aPTT) was determined using Pathromtin* SL test (Dade Behring GmbH, Marburg, Germany); thrombin time (TT) was determined using BC Thrombin Reagent test (Dade Behring GmbH, Marburg, Germany); and fibrinogen was determined using Multifibren* U test (Dade Behring GmbH, Marburg, Germany).
(§2) Whole blood was taken from 11 volunteers and enriched with trisodium citrate (0.3 mL of a 0.106 molar solution per 3 mL whole blood) (S-Monovette®, Sarstedt, Nümbrecht, Germany). Commercial coagulation tests (as described in Example 6) were performed with the following samples: […]

[3] = tested on: citrate blood; test: Thrombin time (TT), BC Thrombin Reagent test; type: biochemical, human; conditions: Example 7, 0.25 IE heparin
Experimental: (§3) Whole blood was taken from volunteers and enriched with trisodium citrate (0.3 mL of a 0.106 molar solution per 3 mL whole blood) (S-Monovette®, Sarstedt, Nümbrecht, Germany). Routine coagulation tests were performed on the following samples:
(§4) The following commercial coagulation tests were performed according to the prescription of the manufacturer: prothrombin time (PT) was determined using Thromborel® S test (Dade Behring GmbH, Marburg, Germany); activated partial thromboplastin time (aPTT) was determined using Pathromtin* SL test (Dade Behring GmbH, Marburg, Germany); and thrombin time (TT) was determined using BC Thrombin Reagent test (Dade Behring GmbH, Marburg, Germany).
as §1, §2

[4] = tested on: Antithrombin III; test: Antithrombin III in citrate blood; type: biochemical, human; conditions: Example 7, 0.25 IE heparin
Experimental: as §2

[5] = tested on: citrate blood; test: Prothrombin time (PT), Thromborel S test; type: biochemical, human; conditions: Example 7, 0.25 IE heparin
Experimental: as §3, §4, §1, §2

[6] = tested on: citrate blood; test: Activated partial thromboplastin time (aPTT), Pathromtin SL test; type: biochemical, human
Experimental: as §3, §4, §1, §2

[7] = tested on: D-Dimer; test: D-Dimer in citrate blood; type: biochemical, human; conditions: Example 7, 0.25 IE heparin
Experimental: as §2

[8] = tested on: citrate blood; test: International normalized ratio (INR); type: biochemical, human; conditions: Example 7, 0.25 IE heparin
Experimental: as §2

Cc1ccc(S(=O)(=O)[N-]Cl)cc1.[Na+] [chloramine T]
side effects of intravenous application [1]: severe side effects such as pericardial and lung edema

heparin [reference compound]
Fibrinogen ([2]; individual subjects 1-11): 214 mg/dL and 155 mg/dL and 313 mg/dL and 153 mg/dL and 234 mg/dL and 236 mg/dL and 379 mg/dL and 309 mg/dL and 259 mg/dL and 283 mg/dL and 249 mg/dL
Fibrinogen, mean value ([2]; mean of 11 subjects): 253.1 mg/dL
Thrombin time (TT) ([3]; individual subjects): 400 s
Thrombin time (TT), mean value ([3]; mean of 11 subjects): 400.0 s
Antithrombin III ([4]; individual subjects 1-11): 93% and 79% and 99% and 83% (2×) and 81% (2×) and 88% and 113% and 75% and 94%
Antithrombin III, mean value ([4]; mean of 11 subjects): 88.1%
Prothrombin time (PT) ([5]; individual subjects 1-11): 66% and 58% and 89% (2×) and 62% and 74% and 54% and 69% and 78% and 68% and 72%
Prothrombin time (PT), mean value ([5]; mean of 11 subjects): 70.8%
activated partial thromboplastin time ([6]; Example 5, citrate blood plus 0.25 IE heparin, increased from 36): 56 s
Activated partial thromboplastin time (aPTT) ([6]; Example 7, 0.25 IE heparin, individual subjects 1-11): 283 s and 187 s and 135 s and 177 s and 375 s and 300 s and 400 s and 216 s and 284 s and 195 s and 169 s
Activated partial thromboplastin time (aPTT), mean value ([6]; Example 7, 0.25 IE heparin, mean of 11 subjects): 247.4 s
D-Dimer ([7]; individual subjects 1-11): 217 µg/L and 199 µg/L and 353 µg/L and 146 µg/L and 76 µg/L and 183 µg/L and 285 µg/L and 159 µg/L and 150 µg/L and 203 µg/L and 157 µg/L
D-Dimer, mean value ([7]; mean of 11 subjects): 193.5 µg/L
International normalized ratio (INR) ([8]; individual subjects 1-11): 1.2 (6×) and 1.3 (2×) and 1.1 (2×) and 1.4
International normalized ratio (INR), mean value ([8]; mean of 11 subjects): 1.2
